Patent publication US11845760B2, “PRMT5 inhibitors” (AMGEN INC., priority 2020, dated 2023)
Where two headings read alike, the source gives them in different places.

How the values were obtained:
HCT116 WT cells = assay: HCT116 WT cell line proliferation (CellTiter-Glo cell viability, 6 days); format: cell-based; settings: HCT116 WT (parent) cells, 6 days of treatment, CellTiter-Glo cell viability, read-out: HCT-116 WT IC50
Method in brief: (§1)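 Viability by CellTiter-Glo after 6 days' drug exposure in wild-type HCT116 and its MTAP-null knockout, with DMSO-only control. Dosing used either 1:3 steps (top 1 or 10 μM) or 22 points in 1:2 steps (top 10 or 50 μM). IC50 taken where the fitted curve crosses 50% of control.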

HCT116 MTAP null cells = assay: HCT116 MTAP null cell line proliferation (CellTiter-Glo cell viability, 6 days); format: cell-based; settings: HCT116 MTAP null cells, 6 days of treatment, CellTiter-Glo cell viability, read-out: HCT-116 MTAP null IC50
Method in brief: as §1

| SMILES | IC50 (HCT116 WT cells; Homo sapiens, HCT-116, 144 h) [nM] | IC50 (HCT116 MTAP null cells; HCT116-MTAP null, 144 h) [nM] | IC50 (HCT116 WT cells) [nM] | IC50 (HCT116 MTAP null cells) [nM] |
| --- | --- | --- | --- | --- |
| C[C@H]1OCc2c1c(N)nc1ccc(C(=O)N3C[C@H](c4ccccc4)[C@H]4CCC[C@@H]43)cc21 [Example 401, ((3R)-4-amino-3-methyl-1,3-dihydrofuro[3,4-c]quinolin-8-yl)((3S,3aR,6aS)-3-phenylhexahydrocyclopenta[b]pyrrol-1(2H)-yl)methanone] | 17600 | 677 | – | – |
| COC(=O)[C@@H]1CN(C(=O)c2cc3c4c(c(N)nc3cc2F)COC4)C[C@H]1c1ccc(C(F)(F)F)cc1 (single isomer, unassigned) [Example 480] | 1750 | 92 | – | – |
| Nc1nc2cc(F)c(C(=O)N3CCOC[C@@H]3c3ccc(C(F)(F)F)cc3)cc2c2c1COC2 [Example 528, (4-amino-7-fluoro-1,3-dihydrofuro[3,4-c]quinolin-8-yl)((3S)-3-(4-(trifluoromethyl)phenyl)-4-morpholinyl)methanone] | 1210 | 29 | – | – |
| CCOc1ccc(C2COCCN2C(=O)c2cc3c4c(c(N)nc3cn2)[C@@H](C)OC4)nn1 (mixture of isomers) [Example 325, ((3R)-4-amino-3-methyl-1,3-dihydrofuro[3,4-c][1,7]naphthyridin-8-yl)((3R)-3-(6-ethoxy-3-pyridazinyl)-4-morpholinyl)methanone and ((3R)-4-amino-3-methyl-1,3-dihydrofuro[3,4-c][1,7]naphthyridin-8-yl)((3S)-3-(6-ethoxy-3-pyridazinyl)-4-morpholinyl)methanone] | > 10000 | 771 | – | – |
| Cn1ncc2c(N)nc3cc(Cl)c(C(=O)N4CC[C@H](c5ccc(C(F)(F)F)cc5)C4)cc3c21 [Example 443, (4-amino-7-chloro-1-methyl-1H-pyrazolo[4,3-c]quinolin-8-yl)((3R)-3-(4-(trifluoromethyl)phenyl)-1-pyrrolidinyl)methanone] | 793 | 13 | – | – |
| C[C@H]1OCc2c1c(N)nc1cnc(C(=O)N3CCOC[C@@H]3c3ccc(C(F)(F)F)cc3)cc21 (single isomer, unassigned) [Example 452] | 3460 | 49 | – | – |
| Nc1nc2cc(Cl)c(C(=O)N3CCOC[C@@H]3c3ccc(C(F)(F)F)cc3)cc2c2c1COC2 [Example 529, (4-amino-7-chloro-1,3-dihydrofuro[3,4-c]quinolin-8-yl)((3S)-3-(4-(trifluoromethyl)phenyl)-4-morpholinyl)methanone] | 502 | 18 | – | – |
| Nc1nc2cc(F)c(C(=O)N3CCC(c4ccc(C(F)(F)F)cn4)C3)cc2c2c1COC2 (racemic) [Example 412, (4-amino-7-fluoro-1,3-dihydrofuro[3,4-c]quinolin-8-yl)((3R)-3-(5-(trifluoromethyl)-2-pyridinyl)-1-pyrrolidinyl)methanone and (4-amino-7-fluoro-1,3-dihydrofuro [3,4-c]quinolin-8-yl)((3S)-3-(5-(trifluoromethyl)-2-pyridinyl)-1-pyrrolidinyl)methanone] | 20800 | 725 | – | – |
| Cn1ncc2c(N)nc3cc(F)c(C(=O)N4C[C@@H]5C[C@]5(c5ccc(C(F)(F)F)cc5)C4)cc3c21 (single isomer, unassigned) [Example 620] | 4230 | 634 | – | – |
| COc1ccc([C@H]2COC[C@@H](C)N2C(=O)c2cc3c4c(c(N)nc3cc2F)COC4)nn1 [Example 540, (4-amino-7-fluoro-1,3-dihydrofuro[3,4-c]quinolin-8-yl)((3S,5R)-3-(6-methoxy-3-pyridazinyl)-5-methyl-4-morpholinyl)methanone] | 579 | 19 | – | – |
| Cn1ncc2c3cc(C(=O)N4CC[C@H](c5ccc(C(F)(F)F)cc5)C4)c(F)cc3nc(N)c21 [Example 437, (4-amino-7-fluoro-3-methyl-3H-pyrazolo[3,4-c]quinolin-8-yl)((3R)-3-(4-(trifluoromethyl)phenyl)-1-pyrrolidinyl)methanone] | 16000 | 924 | – | – |
| C[C@H]1OCc2c1c(N)nc1ccc(C(=O)N3C[C@H](c4ccc(Cl)cc4)[C@@H](O)C3)cc21 (single isomer, unassigned) [Example 467] | 31200 | 982 | – | – |

Results, then the compound that gave them:

| IC50 (HCT116 WT cells; Homo sapiens, HCT-116, 144 h) [nM] | IC50 (HCT116 MTAP null cells; HCT116-MTAP null, 144 h) [nM] | IC50 (HCT116 WT cells) [nM] | IC50 (HCT116 MTAP null cells) [nM] | SMILES |
| --- | --- | --- | --- | --- |
| 279 | 6 | – | – | CCOc1ccc([C@@H]2COC[C@H](C)N2C(=O)c2cc3c4c(c(N)nc3cc2Cl)COC4)nn1 (racemic) [Example 322, (4-amino-7-chloro-1,3-dihydrofuro[3,4-c]quinolin-8-yl)((3R,5S)-3-(6-ethoxy-3-pyridazinyl)-5-methyl-4-morpholinyl)methanone and (4-amino-7-chloro-1,3-dihydrofuro[3,4-c]quinolin-8-yl)((3S,5R)-3-(6-ethoxy-3-pyridazinyl)-5-methyl-4-morpholinyl)methanone] |
| 13000 | 784 | – | – | Nc1nc2ccc(C(=O)N3CCOCC3c3ccc(F)c(C(F)(F)F)c3)cc2c2c1COC2 (racemic) [Example 348, (4-amino-1,3-dihydrofuro[3,4-c]quinolin-8-yl)((3R)-3-(4-fluoro-3-(trifluoromethyl)phenyl)-4-morpholinyl)methanone and (4-amino-1,3-dihydrofuro[3,4-c]quinolin-8-yl)((3S)-3-(4-fluoro-3-(trifluoromethyl)phenyl)-4-morpholinyl)methanone] |
| 213 | 9 | – | – | C[C@@H]1COC[C@H](c2ccc(C(F)(F)F)cc2)N1C(=O)c1cc2c3c(c(N)nc2cn1)COC3 [Example 523, (4-amino-1,3-dihydrofuro[3,4-c][1,7]naphthyridin-8-yl)((3R,5S)-3-methyl-5-(4-(trifluoromethyl)phenyl)-4-morpholinyl)methanone] |
| 1620 | 39 | – | – | C[C@H]1OCc2c1c(N)nc1ccc(C(=O)N3CCOC[C@@H]3c3ccc(C(F)(F)C(F)(F)F)cc3)cc21 [Example 336, ((3R)-4-amino-3-methyl-1,3-dihydrofuro[3,4-c]quinolin-8-yl)((3S)-3-(4-(pentafluoroethyl)phenyl)-4-morpholinyl)methanone] |
| 5580 | 145 | – | – | CCOc1ccc([C@@H]2COC[C@H](C)N2C(=O)c2ccc3nc(N)c4c(c3c2)COC4)nn1 (racemic) [Example 319, (4-amino-1,3-dihydrofuro[3,4-c]quinolin-8-yl)((3R,5S)-3-(6-ethoxy-3-pyridazinyl)-5-methyl-4-morpholinyl)methanone and (4-amino-1,3-dihydrofuro[3,4-c]quinolin-8-yl)((3S,5R)-3-(6-ethoxy-3-pyridazinyl)-5-methyl-4-morpholinyl)methanone] |
| 18900 | 577 | – | – | COC(=O)[C@H]1CN(C(=O)c2cc3c4c(c(N)nc3cc2F)COC4)C[C@@H]1c1ccc(C(F)(F)F)cc1 (single isomer, unassigned) [Example 479] |
| – | – | 20900 | 403 | CC1OCc2c1c(N)nc1cnc(C(=O)N3C(C)COCC3c3ccc(OC(F)(F)F)cc3F)cc21 (mixture of isomers) [Example 330, ((3S)-4-amino-3-methyl-1,3-dihydrofuro[3,4-c][1,7]naphthyridin-8-yl)((3R,5S)-3-(2-fluoro-4-(trifluoromethoxy)phenyl)-5-methyl-4-morpholinyl)methanone and ((3S)-4-amino-3-methyl-1,3-dihydrofuro[3,4-c][1,7]naphthyridin-8-yl)((3S,5R)-3-(2-fluoro-4-(trifluoromethoxy)phenyl)-5-methyl-4-morpholinyl)methanone] |
| 13300 | 866 | – | – | C[C@H]1OCc2c1c(N)nc1ccc(C(=O)N3CC(c4ccc(Cl)cc4)CC3C3CC3)cc21 (stereo partly drawn) [Example 396, ((3R)-4-amino-3-methyl-1,3-dihydrofuro[3,4-c]quinolin-8-yl)(4-(4-chlorophenyl)-2-cyclopropylpyrrolidin-1-yl)methanone] |
| 6360 | 118 | – | – | Cn1ncc2c(N)nc3ccc(C(=O)N4CC(c5ccc(C(F)(F)F)cc5)C4)cc3c21 [Example 408, (4-amino-1-methyl-1H-pyrazolo[4,3-c]quinolin-8-yl)(3-(4-(trifluoromethyl)phenyl)-1-azetidinyl)methanone] |
| 707 | 22 | – | – | Cn1ncc2c(N)nc3cnc(C(=O)N4CCOC[C@@H]4c4ccc(C(F)(F)F)cc4)cc3c21 [Example 371, (4-amino-1-methyl-1H-pyrazolo[4,3-c][1,7]naphthyridin-8-yl)((3S)-3-(4-(trifluoromethyl)phenyl)-4-morpholinyl)methanone] |
| 3230 | 66 | – | – | C[C@H]1OCc2c1c(N)nc1cnc(C(=O)N3[C@@H](C)COC[C@H]3c3ccc(Cl)nc3)cc21 (racemic) [Example 310, ((3R)-4-amino-3-methyl-1,3-dihydrofuro[3,4-c][1,7]naphthyridin-8-yl)((3R,5S)-3-(6-chloro-3-pyridinyl)-5-methyl-4-morpholinyl)methanone and ((3R)-4-amino-3-methyl-1,3-dihydrofuro[3,4-c][1,7]naphthyridin-8-yl)((3S,5R)-3-(6-chloro-3-pyridinyl)-5-methyl-4-morpholinyl)methanone] |
| > 10000 | 4060 | – | – | C[C@@H]1OCc2c1c(N)nc1cnc(C(=O)N3CCOC[C@H]3c3ccc(F)c(C(F)(F)F)c3)cc21 (racemic) [Example 355, ((3S)-4-amino-3-methyl-1,3-dihydrofuro[3,4-c][1,7]naphthyridin-8-yl)((3R)-3-(4-fluoro-3-(trifluoromethyl)phenyl)-4-morpholinyl)methanone and ((3S)-4-amino-3-methyl-1,3-dihydrofuro[3,4-c][1,7]naphthyridin-8-yl)((3S)-3-(4-fluoro-3-(trifluoromethyl)phenyl)-4-morpholinyl)methanone] |
